Data published in US11118160B2, “Probiotic composition for enhancing an insects resistance to a pesticide” (The Regents of the University of California, priority 2017, dated 2021).

Experiments:
[1] = test system: Acetobacter in the insect gut; experiment: Remodeling of the gut microbiome in response to pesticide exposure (FIG. 1); type: in vivo, Drosophila melanogaster; conditions: exposure of flies
Protocol: (§1) The immediate and long-term responses of the gut microbiome to the top ten most utilized herbicides in the United States are measured using the model organism Drosophila melanogaster. By utilizing both gnotobiotic and wild-type flies in these perturbations, effects specifically due to the microbiome are isolated. Based on the results of the fly model, compounds are tested in mice in pre-adolescent exposure scenarios and long-term effects. As in the fly, genomic and metabolomics techniques are used. Detailed, life course assays throughout 12-week span would provide an extensive map of the dynamic composition of mammalian gut microbiomes. Identification of microbiome chemical and genetic interactions are obtained by utilizing the collaborative cross mice and also specified microbial compositions. Pesticide-induced changes in behavior are correlated with changes in the microbiome, while controlling for genetic background.
AIM 1 Screen 20 most commonly used agricultural pesticides in the United States. Determine which pesticides impact microbiome composition in adult flies, leveraging the viability of germ-free animals and rapid life cycle. Measure the immediate (2 hrs) and long-term (10 days) responses of the microbiome to exposure using methods described below.
1C) 16S-seq and microarray of microbiome before and after perturbation to quantify all microbial species and their transcriptomes. […]

Drosophila melanogaster [2] = experiment: Fly behavioral phenotype after pesticide exposure; type: in vivo; conditions: exposed flies
Source text: 1D) Automated behavioral screening in 2D population cages with social affinity, aggression, and mating behavioral quantitative phenotypes. These are ideal because they integrate many aspects of the perturbed animal system, and will allow one skilled in the art to identify subtle neurological phenotypes may be missed by other modalities.
Fly behavioral studies: A 2D cage design with CCD video and fly tracking software is utilized widely by the community (19270697). This techniques enables the automated quantification of social affinity, aggression, and mating behavioral phenotypes.

Drosophila melanogaster [3] = experiment: Host genome-wide transcription response to chronic pesticide exposure (FIGS. 4-5); type: in vivo; conditions: 2 mM atrazine
Source text: 1C) 16S-seq and microarray of microbiome before and after perturbation to quantify all microbial species and their transcriptomes. For treatments with strong effects, sequence the fly gut transcriptome (RNA-seq) to determine gene networks and pathways affected by exposure.

Drosophila melanogaster [4] = experiment: Survival of wild-type and gnotobiotic / germ free flies exposed to atrazine (FIGS. 5-6); type: in vivo
Protocol: as §1
Axenic adult flies are generated and exposures are recapitulated. […] Further, GF flies are fully rescued and wild-type survival curves are restored by feeding flies the bacterial culture prior to exposure. Similar rescue experiments with other microbes are attempted, none of which are rescued.

Structure (SMILES)	effect on Acetobacter in the insect gut [1]	behavioral phenotype induced (Drosophila melanogaster [2])	host response to exposure (transcription) (Drosophila melanogaster [3])	survival of exposed germ free (GF) flies vs control flies with wild-type microbiomes (Drosophila melanogaster [4]; axenic adult flies)	lethality to the host (Drosophila melanogaster [4]; flies, extremely high doses)	susceptibility to toxicity, gnotobiotic flies lacking the atrazine metabolism pathway vs wild-type strains (Drosophila melanogaster [4]; gnotobiotic flies vs wild-type strains having the pathway)
C[n+]1ccc(-c2cc[n+](C)cc2)cc1 [Paraquat, paraquat]	induce the collapse of Acetobacter	–	–	–	–	–
CCNc1nc(Cl)nc(NC(C)C)n1 [Atrazine, atrazine]	induce the collapse of Acetobacter	induces a hyperactive phenotype	induces an adaptive response associated largely with the transport of lipids	die earlier than control flies	not deadly at extremely high doses	significantly more susceptible to toxicity
